A short description of one data set: solubility. The data set is classed as physicochemical. As to conditions: for solubility in organic solvents: most of the organic solvents.
The nature of data set [1]: antipyretic effect, baker yeast hyperthermia (LOUX). Type of data set: in vivo. Conditions: rats; paracetamol 50 to 500 mg. Here is the method: The antipyretic effect of the compounds of formula I has been determined according to the method described by J. J. LOUX and cowork. Toxicol. and Appl. Pharmacol. 22 (1972) 672. According to this method a hyperthermic crisis occurs in the rats after subcutaneous injection of baker yeast.
The compounds to be tested are administered orally in a suspension of an arabic gum solution 19 hours after the injection of yeast.
The body temperatures are measured from 1 to 5 hours after the ingestion of the compounds of formula I by means of a thermistor. The dosages tested range from 25 to 200 mg/kg.
The increase of body temperature in the control rats is about 2° in comparison of that of the untreated rats. The animals which receive the compounds of formula I show only a moderate increase of temperature, mainly 3 and 4 hours after the ingestion of the tested compound. The highest dosages (150 and 200 mg/kg) caused a return to the initial temperature in the treated animals.
In similar experimental conditions, batches of rats receive paracetamol at dose ranging from 50 to 500 mg.

For data set [2] the following is noted: nephrotoxicity and hepatotoxicity context; cited from earlier work.

As to `CCCCCCCCCCCCCCCCNc1ccc(C(O)C(F)(F)F)cc1` (racemic) [Example 8, 1-(4-nhexadecylaminophenyl) 2,2,2-trifluoroethanol], in the data set “solubility” (hydrochloric acid or acetic acid), the “solubility in dilute solutions of acids” value is listed as “soluble”. Consider `CC(=O)Nc1ccc(C(O)C(F)(F)F)cc1` (centres unmarked) [Example 1, 1-(4-acetamidophenyl) 2,2,2-trifluoroethanol], for which the solubility in ethanol result in the data set “solubility” (ethanol) is “soluble”. For the same molecule, the solubility in methanol entry in “solubility” (methanol) is reported as “soluble”. Further, the solubility in water result in “solubility” was “insoluble”. On to `CC(C)C(=O)Nc1ccc(C(O)C(F)(F)F)cc1` (centres unmarked) [Example 2, 1-(4-isobutyramidophenyl) 2,2,2-trifluoroethanol], for which, in the data set “solubility”, the “solubility in organic solvents” value was “soluble” and the solubility in water entry is listed as “insoluble”. Turning to `OC(c1ccc(NC2CCN(CCc3ccccc3)CC2)cc1)C(F)(F)F` (centres unmarked) [Example 9, 4-[4-(2,2,2-trifluoro 1-hydroxyethyl)phenylamino] 1-(2-phenylethyl) piperidine], in “solubility” (just calculated amount of N/10 hydrochloric acid), the “solubility in N/10 hydrochloric acid” value is “soluble”.

Turning to `CCOC(c1ccc(NC(C)=O)cc1)C(F)(F)F` (centres unmarked) [Example 10, 1-(4-acetamidophenyl) 1-ethoxy 2,2,2-trifluoroethane], in the data set “solubility”, the “solubility in organic solvents” value is on record as “soluble” and the solubility in water entry was “insoluble”. With `CC(=O)Nc1ccc(O)cc1` [paracetamol], in data set [1], the “useful dose which curbs significantly the increase of temperature, relative to compounds of formula I” value is recorded as “about twice of that of the compounds of formula I”. The toxicity result in data set [2] is “well-known toxicity”.

Source of the values: patent US4404215A, “Piperidyl phenyl trifluoroethanols” (Science Union et Cie, priority 1978, dated 1983).
